This is an account of results in patent US5677459A, “Methods for the preparation of modulators of acetylcholine receptors” (Sibia Neurosciences, Inc., priority 1995, dated 1997).

Like-named read-outs stand apart in the source and are kept apart here. Bounds are passed on as bounds.

Assay [1] concerns the target T1, nicotinic acetylcholine receptor (Rattus norvegicus, UniProt P09483+P12390).
T1 construct: the brains removed and the cerebral cortex dissected on ice; from tissue; host or cells: cerebral cortex synaptic membranes of male Sprague-Dawley rats
Kind of assay: ^3 H-Nicotine binding/displacement, rat cerebral membranes. As for the experimental part:
^3 H-Nicotine binding to rat cerebral membranes was performed according to modifications of the method of Flyn and Mash (J. Neurochem. 47:1948 (1986)). ^3 H-Nicotine (80 ci/mmol; New England Nuclear Corporation, Boston, Mass.) was used as the ligand for nicotinic acetylcholine receptor binding assays. All other reagents were purchased from the Sigma Chemical Co. (St. Louis, Mo.).
Male Sprague-Dawley rats (250-400 gm) were sacrificed by decapitation, the brains removed and the cerebral cortex dissected on ice. Synaptic membranes were prepared by homogenizing the cortical tissue in 20 volumes of ice-cold modified Tris buffer (50 mM Tris pH 7.4, 120 mM NaCl, 5 mM KCl, 2 mM EDTA, 1 mM PMSF) with a polytron (20 sec at setting 5-6) followed by centrifugation (15 min at 5,000×g) at 4° C. The resultant pellet was rehomogenized and centrifuged twice. The final pellet was resuspended in ice-cold assay buffer (50 mM Tris pH 7.4, 120 mM NaCl, 5 mM KCl, 2 mM CaCl2, 1 mM MgCl2) at a concentration of membrane equivalent to 1 gm wet weight cortex per 10 ml buffer. After protein determination the final membrane preparation was diluted with buffer to 3 mg protein/mi. This membrane preparation was used in either the fresh state or frozen (-70° C.) then thawed.
The binding assay is performed manually using 96-well plates, or using a Biomek automated work station (Beckman Instrument Co.). ^3 H-Nicotine was diluted in assay buffer to give a final concentration of 1.9 nM. The Biomek automated work station was programmed to automatically transfer 750 μl of assay buffer with ^3 H-nicotine, 230 μl of membrane preparation and 20 μl of solution containing the compound of interest in assay buffer, DMSO, ethanol:DMSO (1:1) or appropriate vehicle to the 96-well plate. Atropine was added to the incubation buffer at a final concentration of 3 μM to block binding to muscarinic acetylcholine receptor sites. The plates were maintained on ice for 60 min and the tissue-bound radioactivity was separated from the free by rapid filtration in a Brandel Harvester onto GF/C filters presoaked in 0.5% polyethyleneimine for at least 2 hr. The filters were washed with 4×2 ml of ice-cold assay buffer and filters were transferred to vials to which 4 ml of scintillation cocktail was added. The radioactivity was measured in a LS-6500 Beckman Liquid Scintillation Counter in an autodpm mode. Data were analyzed bylog-logit transformation or non-linear regression analysis (e.g., employing GraphPad Prism, available from GraphPad Software, San Diego, Calif.) to give IC50 values. Non-specific binding was defined by 10 μM cytisine.

Assay [2] deals with muscarinic acetylcholine receptors. Kind of assay: ^3 H-QNB (quinuclidinyl benzilate) binding/displacement, rat cerebral membranes. The settings on record: ^3 H-QNB 60 pM, rat cerebral membranes.
Assay [3] deals with ^3 H-Norepinephrine release, rat prefrontal cortex slices. Kind of assay: Ligand-stimulated ^3 H-norepinephrine release from rat prefrontal cortex slices. The format is cell-based. The conditions noted are these: in vitro slices, 300 μM. How it is done:
(§1) Measurement of ^3 H-dopamine release from rat striatal slices was performed according to the method of Sacaan et al. (J. Neurochem. 59:245 (1992)). Male Sprague-Dawley rats (250-300 g) were decapitated and the striata or olfactory tubercles dissected quickly on a cold glass surface. The tissue was chopped to a thickness of 300 μm with a McIlwain tissue chopper. After chopping again at right angles the tissue was dispersed and incubated for 10 min. at 37° C. in oxygenated Kreb's buffer. ^3 H-Dopamine (40 Ci/mmol, NEN- Dupont, Boston, Mass.) was added (50 nM) and the tissue was incubated for 30 min. in Kreb's buffer containing 10 μM pargyline and 0.5 mM ascorbic acid. Aliquots of the minced tissue were then transferred to chambers of a Brandel Superfusion system in which the tissue was supported on Whatman GF/B filter discs. The tissue was then superfused with buffer at a constant flow rate of 0.3 ml/min by means of a Brandel peristaltic pump. The perfusate was collected in plastic scintillation vials in 3-min fractions, and the radioactivity was estimated by scintillation spectrophotometry. The superfusate for the first 120 min was discarded. After two baseline fractions had been collected, the superfusion buffer was switched to fresh buffer with or without compound of interest. At the end of the experiment the filter and the tissue were removed, and the radiolabeled neurotransmitter content was estimated after extraction into scintillation fluid. The fractional efflux of radiolabeled neurotransmitter was estimated as the amount of radioactivity in the perfusate fraction relative to the total amount in the tissue.
(§2) Following essentially the same procedure as set forth above, the amount of ^3 H-norepinephrine released from rat hippocampus, thalamus and prefrontal cortex slices superfused with buffer containing (or lacking) compounds of interest was also measured.
(§3) Results of studies of the effects of an invention compound (as compared to the effect of nicotine) on the release of neurotransmitters from rat brain slices are presented in Table II. Results presented in Part A of the Table are expressed as the percent fractional release and results presented in Part B of the Table are expressed as a percentage, relative to nicotine response.

Another assay deals with rats. Kind of assay: Locomotor activity assay. The conditions noted are these: Rattus norvegicus, sc, 20 mg/kg, s.c. The format is in vivo, rat (male Sprague-Dawley).
Assay [4] relates to ^3 H-Norepinephrine release, rat hippocampus slices. Kind of assay: Ligand-stimulated ^3 H-norepinephrine release from rat hippocampus slices. The settings on record: in vitro slices, 300 μM. Type of assay: cell-based.
Assay [5] relates to ^3 H-Dopamine release, rat olfactory tubercles. The assay can be described thus: Ligand-stimulated ^3 H-dopamine release from rat olfactory tubercles. Type of assay: cell-based. The settings on record: in vitro slices, 300 μM. As for the experimental part:
as §1, §3

Assay [6] deals with ^3 H-Dopamine release, rat striatal slices. The assay can be described thus: Ligand-stimulated ^3 H-dopamine release from rat striatal slices. Type of assay: cell-based. The settings on record: in vitro slices, 300 μM.
Assay [7] concerns ^3 H-Norepinephrine release, rat thalamus slices. The assay can be described thus: Ligand-stimulated ^3 H-norepinephrine release from rat thalamus slices. The format is cell-based. The settings on record: in vitro slices, 300 μM. As for the experimental part:
as §1, §2, §3

The mark [8] stands for this setting: ^3 H-nicotine 1.9 nM, rat cerebral membranes, read-out: IC50, Nicotine.
[9] abbreviates: 1 h, 0-60 min, read-out: Ambulation (cross overs), percent of change from control.
Where [10] appears, read: 1 h, 0-60 min, read-out: General Activity (beam breaks), percent of change from control.
The mark [11] stands for this setting: 2 h, 60-120 min, read-out: Ambulation (cross overs), percent of change from control.
The mark [12] stands for this setting: 2 h, 60-120 min, read-out: General Activity (beam breaks), percent of change from control.

T1 sequence (P09483 31-630): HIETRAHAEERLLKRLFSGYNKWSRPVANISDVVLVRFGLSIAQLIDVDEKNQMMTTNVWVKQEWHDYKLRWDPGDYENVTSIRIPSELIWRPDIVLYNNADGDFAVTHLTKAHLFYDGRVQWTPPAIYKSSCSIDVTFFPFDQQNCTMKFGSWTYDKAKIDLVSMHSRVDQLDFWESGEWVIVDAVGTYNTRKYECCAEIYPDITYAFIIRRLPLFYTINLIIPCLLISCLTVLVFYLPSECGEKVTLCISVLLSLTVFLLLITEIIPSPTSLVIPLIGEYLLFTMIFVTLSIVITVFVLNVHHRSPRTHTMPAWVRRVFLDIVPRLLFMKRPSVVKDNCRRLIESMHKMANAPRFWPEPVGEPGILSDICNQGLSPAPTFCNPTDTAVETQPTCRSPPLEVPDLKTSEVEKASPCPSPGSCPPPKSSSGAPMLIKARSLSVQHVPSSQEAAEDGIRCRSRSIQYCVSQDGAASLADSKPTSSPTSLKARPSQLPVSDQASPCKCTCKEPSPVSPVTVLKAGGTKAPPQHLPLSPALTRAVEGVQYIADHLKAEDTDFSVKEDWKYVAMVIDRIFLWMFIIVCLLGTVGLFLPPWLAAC
T1 sequence (P12390 25-500): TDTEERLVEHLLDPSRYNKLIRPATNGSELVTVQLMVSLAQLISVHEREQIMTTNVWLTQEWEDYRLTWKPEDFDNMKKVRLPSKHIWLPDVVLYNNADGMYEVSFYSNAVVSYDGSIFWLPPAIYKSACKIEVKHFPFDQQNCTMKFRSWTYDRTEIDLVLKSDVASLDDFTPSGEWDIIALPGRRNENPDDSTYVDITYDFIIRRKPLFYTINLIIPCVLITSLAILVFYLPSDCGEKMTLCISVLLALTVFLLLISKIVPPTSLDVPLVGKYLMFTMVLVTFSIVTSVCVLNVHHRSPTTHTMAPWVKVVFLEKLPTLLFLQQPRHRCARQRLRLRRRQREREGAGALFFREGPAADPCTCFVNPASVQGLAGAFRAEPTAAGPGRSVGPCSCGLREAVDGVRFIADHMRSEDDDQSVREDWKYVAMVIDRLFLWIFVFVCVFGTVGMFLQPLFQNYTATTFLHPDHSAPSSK

What is called IC50 is the concentration at which inhibition is half-maximal. On to `CN1CCCC1c1cncc(-c2ccc(O)c(Cl)c2)c1.O=C(O)/C=C/C(=O)O` (stereo not shown) [R^5 = 3-chloro-4-hydroxyphenyl, 5-(4-hydroxy-3-chlorophenyl)-3-(1-methyl-2-pyrrolidinyl)pyridine fumarate], for which the results for the IC50 in assay [1] (setting [8]) and in assay [2] were 28 nM and > 10000 nM, respectively. Further, the “percent fractional release, ^3 H-Norepinephrine, Prefrontal Cortex” value (from here on “percent fractional release … Prefrontal Cortex”) in assay [3] amounted to 2.94%. Besides, the change in vivo at 20 mg/kg in the assay with rats (setting [9]) was 63%; with rats (setting [10]) it was 68%; in the assay with rats (setting [11]), -36%; in the assay on rats (setting [12]), -17%. Moreover, in assay [4], the “percent fractional release, ^3 H-Norepinephrine, Hippocampus” value (from here on “percent fractional release … Hippocampus”) was determined as 2.5%. In assay [5], the “percent fractional release, ^3 H-Dopamine, Olfactory Tubercles” value worked out at 11.4%. Further, the “percent fractional release, ^3 H-Dopamine, Striatum” value in assay [6] was 8.34%. The “percent fractional release, ^3 H-Norepinephrine, Thalamus” value (“percent fractional release … Thalamus” below) in assay [7] is listed as 3.23%.

Take `CN1CCCC1c1cncc(-c2cccc(Cl)c2)c1.O=C(O)/C=C/C(=O)O` (stereo not shown) [R^5 = 3-chlorophenyl, 5-(3-Chlorophenyl)-3-(1-methyl-2-pyrrolidinyl) pyridine fumarate]: the half-inhibitory concentration (IC50) in assay [1] (setting [8]) is 120 nM; in assay [2], 3700 nM. In assay [3], the “percent fractional release … Prefrontal Cortex” value worked out at 1.7%. Further, the change in vivo at 20 mg/kg with rats (setting [9]) is 48%; in the assay with rats (setting [10]) it was 70%; with rats (setting [11]), 268%; in the assay on rats (setting [12]), 220%. Besides, the “percent fractional release … Hippocampus” value in assay [4] is given as 1.45%. For the same molecule, the “percent fractional release, ^3 H-Dopamine, Olfactory Tubercles” value in assay [5] was found to be 3.25%. Also, the “percent fractional release, ^3 H-Dopamine, Striatum” value in assay [6] was 2.0%. Moreover, the “percent fractional release … Thalamus” value in assay [7] was 1.48%.

With `COc1ccc(-c2cncc(C3CCCN3C)c2)cc1F.O=C(O)/C=C/C(=O)O` (stereo not shown) [R^5 = 3-fluoro-4-methoxyphenyl, 5-(3-Fluoro-4-methoxyphenyl)-3-(1-methyl-2-pyrrolidinyl)pyridine fumarate], the IC50 is 27 nM in assay [1] (setting [8]) and 30500 nM in assay [2]. Moreover, the “percent fractional release … Prefrontal Cortex” value in assay [3] stood at 2.0%. The change in vivo at 20 mg/kg in the assay with rats (setting [9]) is 58%; in the assay with rats (setting [10]) it was 78%; in the assay on rats (setting [11]), 268%; in the assay with rats (setting [12]) it was 202%. The “percent fractional release … Hippocampus” value in assay [4] was found to be 0.73%. For the same molecule, in assay [5], the “percent fractional release, ^3 H-Dopamine, Olfactory Tubercles” value was 2.3%. In addition, in assay [6], the “percent fractional release, ^3 H-Dopamine, Striatum” value was 3.1%. The “percent fractional release … Thalamus” value in assay [7] is recorded as 1.75%.

As for `C#Cc1cncc(C2CCCN2C)c1.O=C(O)/C=C/C(=O)O` (racemic) [R^5 = ethynyl (racemic), 5-Ethynyl-3-(1-methyl-2-pyrrolidinyl)pyridine fumarate], the IC50 was determined as 4.6 nM in assay [1] (IC50, Nicotine) and 10100 nM in assay [2]. Also, the “percent fractional release … Prefrontal Cortex” value in assay [3] is recorded as 0.97%. For the same molecule, the change in vivo at 20 mg/kg in the assay on rats (setting [9]) was 631%; in the assay with rats (setting [10]), 509%; in the assay with rats (setting [12]) it was 628%. The “percent fractional release … Hippocampus” value in assay [4] was found to be 0.69%. The “percent fractional release, ^3 H-Dopamine, Olfactory Tubercles” value in assay [5] amounted to 6.68%. Also, the “percent fractional release, ^3 H-Dopamine, Striatum” value in assay [6] is recorded as 2.56%. Moreover, the “percent fractional release … Thalamus” value in assay [7] came to 0.31%.
